# Source: patent US20090060984A1, “ANIONIC SURFACTANTS LETHAL TO GRAM-POSITIVE BACTERIA” (priority 2007, published 2009)
# Like-named read-outs stand apart in the source and are kept apart here.
# What was measured:
# E. coli = format: cell-based, Escherichia coli; conditions: 24 h contact time
# Experimental: Escherichia coli ATCC 11229 (Culti-loops, Remel Europe, Dartford, Kent, UK) and Pseudomonas aeruginosa ATCC 15442 (Cuti-loops, Remel Europe, Dartford, Kent, UK) were selected as model Gram-negative organisms for the challenge testing of the antimicrobial coatings. Each bacterial strain was streaked for isolated colonies on Tryptic Soy Agar (TSA) plates (Difco, Becton Dickinson, Sparks, Md., U.S.A.) and incubated at 37° C. for 12 to 18 hours. Broth cultures were prepared by first picking 1-2 isolated colonies from TSA plates and inoculating 5 mL Tryptic Soy Broth (TSB; Difco, Becton Dickinson, Sparks, Md., U.S.A.) in a 16 mm test tube. This culture was grown in a shaking water bath at 150 RPM for 8 hours at 37° C. After the eight hours, 125 μL of this culture was added to 50 mL of TSB in a side-arm Klett flask and grown for approximately 8 hours in shaking water bath (150 RPM) at 37° C. The bacterial broths were grown to an A590 of 1.2-1.5, which correlated to approximately 10^9 CFU (colony forming units)/mL. 25 mL of this broth were transferred to a sterile 30 mL Oakridge tube and centrifuged at 12,000×g for 10 minutes at 4° C. (Sorval SS34 rotor) to pelletize the bacteria. The bacterial pellet was washed once and resuspended in 25 mL of phosphate buffer solution (PBS; BBL, FTA Hemaglutination Buffer, Becton Dickinson, Sparks, Md., U.S.A.). The suspension was diluted with PBS to achieve the target range of 10^5-10^6 CFU/mL and used to inoculate the slides containing antibacterial coatings.
# Xylene/methanol (5:1 by weight) is used to dissolve the silver surfactants to facilitate homogeneously mixing with the alkyd resin composition.
# A minus sign (−) denotes no growth, a plus sign (+) denotes confluent growth, and a capital P (P) denotes […].
# Xylene/methanol (5:1 by weight) is used to dissolve the silver surfactants to facilitate homogeneously mixing with the acrylic resin composition.
# The same laboratory experimental solvent based acrylic paint described in Example 34 is used to challenge E. coli by adding various levels of the invention silver anionic surfactants as described in Example 34.
# A commercially available 2K epoxy resin paint is obtained from a local paint store (Sherwin Williams High Solids Epoxy Tile Clad HS; Part A B62WC11; Part B B60VZ75, The Sherwin Williams Company) and the same silver anionic surfactants described in Example 35 are used to prepare test coatings on microscope slides containing various levels of silver ion. These surfactants are dissolved in xylene/methanol (5:1 by weight) to facilitate their quantitative addition to the coating mixture.
# [1] = system: Staphylococcus epidermidis; assay: Growth on surfactant/TSA agar plates; format: cell-based; conditions: Staphylococcus epidermidis strain EM3/ATCC12228
# Streptococcus viridans = assay: Growth on surfactant/TSA agar plates; format: cell-based; conditions: Streptococcus viridans strain EM8
# Staphylococcus aureus = assay: Growth on surfactant/TSA agar plates; format: cell-based; further: test concentration or dose not given here
# Streptococcus bovis = assay: Growth on surfactant/TSA agar plates; format: cell-based; conditions: Streptococcus bovis strain EM12
# Streptococcus agalactiae = assay: Growth on surfactant/TSA agar plates; format: cell-based; conditions: Streptococcus agalactiae strain EM13
# Streptococcus pyogenes = assay: Growth on surfactant/TSA agar plates; format: cell-based; conditions: Streptococcus pyogenes strain EM14; further: test concentration or dose not given here
# Bacillus subtilis = assay: Growth on surfactant/TSA agar plates; format: cell-based; further: test concentration or dose not given here
# Micrococcus luteus = assay: Growth on surfactant/TSA agar plates; format: cell-based; conditions: Micrococcus luteus strain EM17
# Enterococcus fecalis = assay: Growth on surfactant/TSA agar plates; format: cell-based; further: test concentration or dose not given here
# [2] = laboratory solvent based acrylic paint
# [3] = Staphylococcus aureus strain ATCC6538
# [4] = Staphylococcus aureus strain EM24/ATCC25923
# [5] = Bacillus subtilis strain ATCC33
# [6] = Enterococcus fecalis strain EM19 (first listing)
# [7] = Enterococcus fecalis strain EM19 (second listing)
smiles,measurement,setting,value
"CCCCCCCCCCCCOS(=O)(=O)[O-].[Ag+] [AgDS, Silver dodecylsufate]",E. coli growth on coating,"E. coli; alkyd resin paint, 0.0012 weight % Ag in coating",+
same,E. coli growth on coating,"E. coli; alkyd resin paint, 0.003 weight % Ag in coating",+
same,E. coli growth on coating,"E. coli; alkyd resin paint, 0.006 weight % Ag in coating",+
same,E. coli growth on coating,"E. coli; alkyd resin paint, 0.012 weight % Ag in coating",+
same,E. coli growth on coating,"E. coli; alkyd resin paint, 0.03 weight % Ag in coating",−
same,E. coli growth on coating,"E. coli; alkyd resin paint, 0.06 weight % Ag in coating",−
same,E. coli growth on coating,"E. coli; alkyd resin paint, 0.12 weight % Ag in coating",−
same,E. coli growth on coating,"E. coli; commercial 2K epoxy paint, 0.0012 weight % Ag in coating",+
same,E. coli growth on coating,"E. coli; commercial 2K epoxy paint, 0.003 weight % Ag in coating",+
same,E. coli growth on coating,"E. coli; commercial 2K epoxy paint, 0.006 weight % Ag in coating",+
same,E. coli growth on coating,"E. coli; commercial 2K epoxy paint, 0.03 weight % Ag in coating",−
same,E. coli growth on coating,"E. coli; commercial 2K epoxy paint, 0.06 weight % Ag in coating",−
same,E. coli growth on coating,"E. coli; commercial 2K epoxy paint, 0.12 weight % Ag in coating",−
same,Silver level giving complete inhibition of growth,E. coli; commercial 2K epoxy paint,0.03 % w/w
same,Silver level partially effective,E. coli; commercial 2K epoxy paint,0.012 % w/w
same,E. coli growth on coating,"E. coli; commercial solvent borne acrylate paint, 0.0012 weight % Ag in coating",+
same,E. coli growth on coating,"E. coli; commercial solvent borne acrylate paint, 0.003 weight % Ag in coating",+
same,E. coli growth on coating,"E. coli; commercial solvent borne acrylate paint, 0.006 weight % Ag in coating",+
same,E. coli growth on coating,"E. coli; commercial solvent borne acrylate paint, 0.012 weight % Ag in coating",+
same,E. coli growth on coating,"E. coli; commercial solvent borne acrylate paint, 0.03 weight % Ag in coating",−
same,E. coli growth on coating,"E. coli; commercial solvent borne acrylate paint, 0.06 weight % Ag in coating",−
same,E. coli growth on coating,"E. coli; commercial solvent borne acrylate paint, 0.12 weight % Ag in coating",−
same,Silver level effective at preventing any growth,E. coli; commercial solvent borne acrylic paint,completely effective at this lower level
same,Silver level preventing any growth,E. coli; [2],0.03 % w/w
same,Silver level with partial inhibition,E. coli; [2],0.012%
same,E. coli growth on coating,"E. coli; laboratory solvent borne acrylate paint, 0.0012 weight % Ag in coating",+
same,E. coli growth on coating,"E. coli; laboratory solvent borne acrylate paint, 0.003 weight % Ag in coating",+
same,E. coli growth on coating,"E. coli; laboratory solvent borne acrylate paint, 0.006 weight % Ag in coating",+
same,E. coli growth on coating,"E. coli; laboratory solvent borne acrylate paint, 0.03 weight % Ag in coating",−
same,E. coli growth on coating,"E. coli; laboratory solvent borne acrylate paint, 0.06 weight % Ag in coating",−
same,E. coli growth on coating,"E. coli; laboratory solvent borne acrylate paint, 0.12 weight % Ag in coating",−
CCCCC(CC)COC(=O)CC(C(=O)OCC(CC)CCCC)S(=O)(=O)[O-].[Na+] (stereo not shown) [Compound S1],"No Growth(−)/Full Growth(+), replicate columns",[1],−
same,"No Growth(−)/Full Growth(+), replicate columns",Streptococcus viridans,−
same,"No Growth(−)/Full Growth(+), replicate columns",Staphylococcus aureus; [3],−
same,"No Growth(−)/Full Growth(+), replicate columns",Staphylococcus aureus; [4],−
same,"No Growth(−)/Full Growth(+), replicate columns",Streptococcus bovis,−
same,"No Growth(−)/Full Growth(+), replicate columns",Streptococcus agalactiae,−
same,"No Growth(−)/Full Growth(+), replicate columns",Streptococcus pyogenes,−
same,"No Growth(−)/Full Growth(+), replicate columns",Bacillus subtilis; [5],−
same,"No Growth(−)/Full Growth(+), replicate columns",Bacillus subtilis; Bacillus subtilis strain EM27,−
same,"No Growth(−)/Full Growth(+), replicate columns",Micrococcus luteus,−
same,"No Growth(−)/Full Growth(+), replicate columns",Enterococcus fecalis; [6],−
same,"No Growth(−)/Full Growth(+), replicate columns",Enterococcus fecalis; [7],−
CCCCC(CC)COP(=O)([O-])OCCC(CC)CCC.[Na+] (stereo not shown) [Compound S2],"No Growth(−)/Full Growth(+), replicate columns",[1],−
same,"No Growth(−)/Full Growth(+), replicate columns",Streptococcus viridans,−
same,"No Growth(−)/Full Growth(+), replicate columns",Staphylococcus aureus; [3],−
same,"No Growth(−)/Full Growth(+), replicate columns",Staphylococcus aureus; [4],−
same,"No Growth(−)/Full Growth(+), replicate columns",Streptococcus bovis,−
same,"No Growth(−)/Full Growth(+), replicate columns",Streptococcus agalactiae,−
same,"No Growth(−)/Full Growth(+), replicate columns",Streptococcus pyogenes,−
same,"No Growth(−)/Full Growth(+), replicate columns",Bacillus subtilis; [5],−
same,"No Growth(−)/Full Growth(+), replicate columns",Bacillus subtilis; Bacillus subtilis strain EM27,−
same,"No Growth(−)/Full Growth(+), replicate columns",Micrococcus luteus,−
same,"No Growth(−)/Full Growth(+), replicate columns",Enterococcus fecalis; [6],−
same,"No Growth(−)/Full Growth(+), replicate columns",Enterococcus fecalis; [7],−
CCCCCCCCCCCCCCCCCCNC(=O)CC(C(=O)[O-])S(=O)(=O)[O-].[Na+].[Na+] (stereo not shown) [Compound S3],"No Growth(−)/Full Growth(+), replicate columns",[1],−
same,"No Growth(−)/Full Growth(+), replicate columns",Streptococcus viridans,+
same,"No Growth(−)/Full Growth(+), replicate columns",Staphylococcus aureus; [3],−
same,"No Growth(−)/Full Growth(+), replicate columns",Staphylococcus aureus; [4],−
same,"No Growth(−)/Full Growth(+), replicate columns",Streptococcus bovis,−
same,"No Growth(−)/Full Growth(+), replicate columns",Streptococcus agalactiae,−
same,"No Growth(−)/Full Growth(+), replicate columns",Streptococcus pyogenes,−
same,"No Growth(−)/Full Growth(+), replicate columns",Bacillus subtilis; [5],−
same,"No Growth(−)/Full Growth(+), replicate columns",Bacillus subtilis; Bacillus subtilis strain EM27,−
same,"No Growth(−)/Full Growth(+), replicate columns",Micrococcus luteus,−
same,"No Growth(−)/Full Growth(+), replicate columns",Enterococcus fecalis; [6],−
same,"No Growth(−)/Full Growth(+), replicate columns",Enterococcus fecalis; [7],+
